Where two headings read alike, the source gives them in different places. No end group written: not given here.
How the values were obtained:
animal pain models = conditions: cited from earlier work
From the text: […]. Nav channels are structurally related to voltage-gated calcium (Cav) channels, Cav1 and Cav2. […] […].

[1] = tested on: voltage-gated ion channels (VGICs); conditions: cited from earlier work; for inhibition of Nav and Cav channels (in words): Chuang et al., Yamamoto and Sakashita, Middleton et al., Sidach and Mintz, Xiao et al., 2005
[2] = tested on: HVA I Ca in small-diameter IB4 ^− DRG neurons; test: cells
Protocol: Spinal level L3–L5 DRG were removed and placed in ice-cold HEPES-buffered saline (HBS) composed of (in mM): 154 NaCl, 2.5 KCl, 1.8 CaCl2, 1.5 MgCl2, 10 HEPES, and 10 glucose (pH 7.4, 330 ± 5 mOsm). Iridectomy scissors were utilized to cut up ganglia before incubation at 37°C for 15 min in oxygenated HBS containing 5 mg ml^−1 collagenase type 2 (Worthington Biochemical Corp, Lakewood, NJ, United States) followed by 25 min in oxygenated HBS containing 1 mg ml^−1 papain (Worthington Biochemical Corp). […] After enzyme treatment, ganglia were placed in 3 ml of HBS following two room temperature HBS washes. Ganglia were then triturated through fire-polished Pasteur pipettes with decreasing bores to extract cells. Finally, the cells mixed in HBS were plated onto surface modified culture dishes (Corning Primaria™ easy grip). […] DRG cells were pre-treated with 1 μg ml^−1 Alexa Fluor 488-conjugated Bandeiraea simplicifolia IB4 (Invitrogen) for 5 min at room temperature and washed with HBS for 5 min before fluorescence was examined on the inverted microscope (Olympus, IX50) used for patch clamp recordings.
Cell size was determined from an eyepiece graticule. Whole-cell electrophysiology was conducted at room temperature (22–24°C) in culture dishes perfused with room temperature HBS. The intracellular pipette solution contained (mM): 120 CsCl, 10 HEPES, 10 EGTA, 2 CaCl2, 5 MgATP, 5 Na2GTP, 5 NaCl; pH 7.3 (CsOH); 285 ± 5 mos mol l^−1.
An EPC-9 patch-clamp amplifier and corresponding PULSE software from HEKA Electronik (Lambrecht/Pfalz, Germany) were used to make recordings. Currents were sampled at 50 kHz and recorded on a hard disk. Borosilicate glass from AM Systems, Everett, WA, United States were used for patch pipettes. The input resistance of the pipettes ranged from 2 to 4 MΩ. […] A built-in procedure of the HEKA amplifier compensated for the capacitive transient currents. A −P/6 protocol was utilized to subtract leak current online. I Ca was generated with the recording protocol which included a depolarization from a holding potential of −80 mV to 0 mV for 10 ms every 30 s. I Na was generated through a recording protocol which included a step depolarization from a holding potential of −80 mV to 0 mV for 10 ms at a frequency of 0.1 Hz. Cells were perfused with the test compound via a pressure driven perfusion system (AutoMate Scientific, United States).
All data analysis and graphs were generated in OriginPro (Origin Lab Corporation, United States). […] Activation and SSI curves were fit by the modified Boltzmann equation: I or G=1/(1+exp(Vm−V0.5/ka)) Where I is the current or G is the conductance, Vm is the pre-pulse potential, V 0.5 is the half-maximal activation potential and ka is the slope factor.
Statistical significance (p < 0.05) was determined using unpaired Student’s t-test or 1-way ANOVA followed by a Tukey multiple comparison. All data is presented as mean ± SEM (n), where n is individual cells.

Nav1.7 = conditions: cited from earlier work
From the text: Loss-of-function mutation of the SCN9A gene that codes for Nav1.7 leads to congenital insensitivity to pain ([Cox et al., 2006]), whereas SCN9A gain-of-function mutations causes paroxysmal extreme pain disorder and primary erythromelalgia ([Dib-Hajj et al., 2008]). […] Homology of VGIC voltage sensing domains, and particularly those of Nav channels, is at the crux of the development of genuinely selective Nav1.7 modulators ([Kingwell, 2019]). Given the VSD functional importance in neuronal VGICs and their structural homology, it is not surprising that VDPs target related channel families. […] Mammalian Nav and Cav α-subunits are structurally homologous but differ in their gating mechanisms ([Kubota et al., 2017]).

N-type Cav channel = conditions: ref Chuang et al., 1998, Olamendi-Portugal et al., 2002, Sidach and Mintz; cited from earlier work
From the text: (§1) Mammalian Nav and Cav α-subunits are structurally homologous but differ in their gating mechanisms ([Kubota et al., 2017]).

Nav1.2 and Nav1.5 = conditions: ref Chuang et al., 1998, Olamendi-Portugal et al., 2002, Sidach and Mintz; cited from earlier work
From the text: as §1

P-type calcium channels = conditions: ref Chuang et al., 1998, Olamendi-Portugal et al., 2002, Sidach and Mintz; cited from earlier work
From the text: as §1

[3] = tested on: T-type and L-type Cav channels; conditions: ref Chuang et al., 1998, Olamendi-Portugal et al., 2002, Sidach and Mintz; cited from earlier work
From the text: as §1

[4] = ref Kuenzi and Dale, 1996, Caterina et al., 1997, McArthur et al., 2019
[5] = ref Swartz and MacKinnon, 1995, 1998, Li-Smerin and Swartz, 2002, Bosmans et al., 2008, Bladen et al., 2014

## Cn1nccc1-c1ccccc1Oc1ccc(S(=O)(=O)Nc2nccs2)cc1C#N [PF-04856264]
Animal pain models; small molecule, ref Deuis et al., 2017
  effect in rodent models of acute nociception or inflammatory pain (in words): ineffective

## COc1cc(CNC(=O)CCCC/C=C/C(C)C)ccc1O [capsaicin]
[1]; [4]
  channel families acted on: TRPV1/Kv/Cav

## Oc1cc2c(cc1O)CN(C(=S)NCCc1ccc(Cl)cc1)CCC2 [capsazepine]
[1]; [4]
  channel families acted on: TRPV1/Kv/Cav

## CN1CC[C@]23c4c5ccc(O)c4O[C@H]2[C@@H](O)C=C[C@H]3[C@H]1C5 [morphine]
Animal pain models; in vivo
  antinociceptive effect in the presence of Cav1 and Cav2.2 channel inhibitors (in words): enhanced

## C=CCN1CC[C@]23c4c5ccc(O)c4O[C@H]2C(=O)CC[C@@]3(O)[C@H]1C5 [naloxone, reference compound]
[2]; Rattus norvegicus, DRG neuron, read-out: inhibition of I Ca
  inhibition at 1 µM: 1.68 ± 0.61%
Nav1.7
  effect on Nav1.7 currents (in words): did not alter Nav1.7 currents

## COc1ccc2c3c1O[C@H]1C(=O)CC[C@@]4(O)[C@@H](C2)N(C)CC[C@]314 [oxycodone, reference compound]
Nav1.7; opioid receptor modulators, ref Mueller et al., 2019
  effect on Nav1.7 currents (in words): did not alter Nav1.7 currents

## NC1=N[C@H](O)[C@H]2[C@H]3O[C@]4(O)O[C@@H]([C@@H](O)[C@@]2(N1)[C@@H]4O)[C@]3(O)CO [tetrodotoxin]
[1]
  channel families acted on: Nav/Cav

## Hanatoxin
[1]; [5]
  inhibition of Nav and Cav channels (in words): inhibit both Nav and Cav channels
[1]; ref Swartz and MacKinnon, 1995, Li-Smerin and Swartz, 1998, Bosmans et al., 2008
  channel families acted on: Kv/Nav/Cav

## ProTxI: voltage-sensing domain (VSD) gating modifier toxin (ECRYWLGGCSAGQTCCKHLVCSRRHGWCVWDGTFS; ends and bridges not checked; cysteine pairing not given here; UniProt P83480 1-35, looked up)
[1]; ref Middleton et al., 2002, Bosmans et al., 2008, Bladen et al., 2014, Gui et al.
  channel families acted on: Nav/Kv/Cav/TRPA1
[1]; [5]
  inhibition of Nav and Cav channels (in words): inhibit both Nav and Cav channels

## ProTxII
Animal pain models; ref Schmalhofer et al., 2008
  effect in rodent models of acute nociception or inflammatory pain (in words): ineffective
[1]; ref Middleton et al., 2002, Bladen et al., 2014
  channel families acted on: Nav/Cav
[1]; [5]
  inhibition of Nav and Cav channels (in words): inhibit both Nav and Cav channels

## [D-Ala^2, N-MePhe^4, Gly-ol]-Enkephalin [DAMGO, reference compound]
[2]; 100 nM DAMGO applied alone, small IB4− rat DRG neurons, mean ± SEM, n = 6
  inhibition of HVA I Ca: 6.49 ± 1.07%
Animal pain models; ref Contreras et al., 1988, Barro et al., 1995
  antinociceptive effect in the presence of Cav1 and Cav2.2 channel inhibitors (in words): enhanced

B1: Kurtoxin: scorpion peptide, gating modifier toxin (peptide, UniProt P58910 1-63, looked up)
Kurtoxin: KIDGYPVDYWNCKRICWYNNKYCNDLCKGLKADSGYCWGWTLSCYCQGLPDNARIKRSGRCRA
modifications: ends and bridges not checked
[1]; ref Chuang et al., 1998
  channel families acted on: Nav/Cav
[1]; [5]
  inhibition of Nav and Cav channels (in words): inhibit both Nav and Cav channels
N-type Cav channel
  effect on N-type Cav channel kinetics (in words): little to no alteration
Nav1.2 and Nav1.5
  effect on inactivation of Nav1.2 and Nav1.5 (in words): slows inactivation
P-type calcium channels
  effect on deactivation (in words): slows deactivation
[3]
  effect on deactivation (in words): accelerates deactivation
